Tests used:
[1] = system: mouse locomotor activity; experiment: Locomotor activity of mice, drug alone; format: in vivo, Male Swiss-Webster mice; details: for percent suppression of locomotion: alone; for effect on spontaneous exploratory activity (in words): mice
Description: Suspensions are ultrasonicated for 3 minutes.

[2] = molecular target: T1, adenosine A1 receptor (Rattus norvegicus, UniProt P25099); experiment: [3H]-N6-cyclohexyladenosine binding to rat whole brain membranes (A1 affinity, RBA-1)
T1 construct: from tissue; host or cells: rat whole brain membranes
T1 sequence (P25099 1-326): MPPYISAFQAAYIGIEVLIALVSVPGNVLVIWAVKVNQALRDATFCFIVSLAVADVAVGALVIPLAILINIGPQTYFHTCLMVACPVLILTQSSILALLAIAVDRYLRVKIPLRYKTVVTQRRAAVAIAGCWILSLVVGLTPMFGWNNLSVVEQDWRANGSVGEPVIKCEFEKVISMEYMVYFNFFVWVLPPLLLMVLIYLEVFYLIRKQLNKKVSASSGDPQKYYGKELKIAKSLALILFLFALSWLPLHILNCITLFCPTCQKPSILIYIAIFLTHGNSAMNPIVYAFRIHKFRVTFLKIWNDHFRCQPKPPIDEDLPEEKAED

[3] = molecular target: T2, adenosine A2 receptor (Rattus norvegicus, UniProt P30543); experiment: [3H]-NECA binding to rat striatal membranes (A2 affinity, RBA-2)
T2 construct: from tissue; host or cells: rat striatal membranes
T2 sequence (P30543 whole entry): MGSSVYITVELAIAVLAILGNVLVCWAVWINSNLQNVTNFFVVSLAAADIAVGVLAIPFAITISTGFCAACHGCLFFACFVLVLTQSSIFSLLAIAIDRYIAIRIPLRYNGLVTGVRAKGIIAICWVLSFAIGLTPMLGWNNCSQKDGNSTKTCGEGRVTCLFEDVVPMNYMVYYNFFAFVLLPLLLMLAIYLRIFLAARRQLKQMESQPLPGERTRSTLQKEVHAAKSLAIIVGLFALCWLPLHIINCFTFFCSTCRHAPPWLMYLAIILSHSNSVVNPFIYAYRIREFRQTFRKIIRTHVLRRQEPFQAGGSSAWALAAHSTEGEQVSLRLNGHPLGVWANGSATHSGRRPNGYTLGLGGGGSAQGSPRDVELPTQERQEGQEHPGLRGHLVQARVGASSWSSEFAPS

Row | Compound | percent suppression of locomotion ([1]; CV-1808 8 mg/kg IP) | effect on spontaneous exploratory activity (in words) [1] | IC50 [2] | IC50 [3] | percent suppression of locomotion ([1]; CPA 2 mg/kg IP)
1 | Nc1nc(Nc2ccccc2)nc2c1ncn2[C@@H]1O[C@H](CO)[C@@H](O)[C@H]1O [CV-1808, 2-anilinoadenosine] | 83% | inhibition of spontaneous exploratory activity | – | – | –
2 | CCCn1c(=O)c2[nH]c(C3CCSC3)nc2n(CCC)c1=O (stereo not shown) [Example 1, 1,3-Dipropyl-8-(3-tetrahydrothienyl)xanthine] | – | – | 2 nM | 622 nM | –
3 | CCCn1c(=O)c2[nH]c(C3CCOC3)nc2n(CCC)c1=O (stereo not shown) [Example 3, 1,3-Dipropyl-8-(3-tetrahydrofuranyl)xanthine] | – | – | 28 nM | 4650 nM | –
4 | CCCn1c(=O)c2[nH]c(C3CCCS3)nc2n(CCC)c1=O (stereo not shown) [Example 5, 1,3-Dipropyl-8-(2-tetrahydrothienyl)xanthine] | – | – | 88 nM | – | –
5 | Cn1c(=O)c2nc(C3CCOC3)[nH]c2n(C)c1=O (stereo not shown) [Example 4] | – | – | 400 nM | 2000 nM | –
6 | CCCn1c(=O)c2[nH]c(C3CCCO3)nc2n(CCC)c1=O (stereo not shown) [Example 2, 1,3-Dipropyl-8-(2-tetrahydrofuranyl)xanthine] | – | – | 20 nM | 3100 nM | –
7 | OC[C@H]1O[C@@H](n2cnc3c(NC4CCCC4)ncnc32)[C@H](O)[C@@H]1O [CPA, N^6 -cyclopentyladenosine] | – | inhibition of spontaneous exploratory activity | – | – | 94%

From US4755517A, “Derivatives of xanthine, pharmaceutical compositions and methods of use therefor” (Warner-Lambert Company, priority 1986, dated 1988)
